One series concerns the target T1, CYP1A2 (Homo sapiens, UniProt P05177).
T1 construct: in the assay of CYP enzyme activity in human liver microsome; from tissue; host or cells: human liver microsome
T1 sequence (P05177 1-516): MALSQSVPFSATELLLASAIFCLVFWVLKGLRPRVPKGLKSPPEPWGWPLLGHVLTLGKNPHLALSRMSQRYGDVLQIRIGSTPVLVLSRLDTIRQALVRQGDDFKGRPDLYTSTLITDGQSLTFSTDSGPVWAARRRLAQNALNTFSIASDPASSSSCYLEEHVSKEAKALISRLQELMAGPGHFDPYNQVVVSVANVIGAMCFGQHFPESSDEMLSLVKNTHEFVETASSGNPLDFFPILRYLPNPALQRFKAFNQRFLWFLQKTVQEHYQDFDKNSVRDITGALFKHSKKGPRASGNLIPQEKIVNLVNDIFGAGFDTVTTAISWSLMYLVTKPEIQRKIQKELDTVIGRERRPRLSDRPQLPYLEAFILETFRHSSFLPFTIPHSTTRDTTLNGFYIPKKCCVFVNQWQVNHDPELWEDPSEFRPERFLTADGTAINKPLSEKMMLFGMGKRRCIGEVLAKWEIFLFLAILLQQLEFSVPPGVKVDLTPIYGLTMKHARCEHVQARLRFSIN
The experiment in a line: Inhibition of CYP enzyme activity in human liver microsome, CYP1A2. The class given is in vitro ADME. The settings on record: microsomes. From the text: (§1) The results of the compound disclosed herein and the reference compound Poziotinib in the assay of CYP enzyme activity in human liver microsome were shown in the following table (Table 17).
(Microsomes from liver hold many membrane-bound enzymes, among them those of drug oxidation.)

The nature of another series: Pharmacokinetics in mice. The class given is in vivo, mouse. The procedure:
Purpose of the assay: this assay aimed to investigate in vivo plasma pharmacokinetics of the example compound disclosed herein and the reference compound in female BALB/c mice after the single intravenous injection and intragastric administration thereof.
Animals of the assay: female BALB/c nude mice, 7-9 weeks old, weighted 17-23 grams; supplier: shanghai sippr bk laboratory animals Ltd.
Sample collection: at each time point, a 0.03 mL blood sample was collected from the saphenous vein of the assay animal by puncture, and the actual blood collection time was recorded. All blood samples were added into commercial EDTA-K2 anticoagulation tubes with a specification of 1.5 mL (the supplier was Jiangsu KANGJIAN Medical Apparatus Co., Ltd.). Within half an hour after the blood sample was collected, the blood sample was centrifuged at 3000 g at 4° C. for 10 minutes, and the supernatant plasma was drawn, quickly placed in dry ice, and stored in a refrigerator at −80° C. for LC-MS/MS analysis.
Data analysis: Plasma concentrations were processed using a non-compartmental model of WinNonlin™Version6.3 (Pharsight, MountainView, Calif.) pharmacokinetic software, and pharmacokinetic parameters Cmax, Tmax, T1/2, and AUC0-last were calculated using a linear log trapezoid method.

A further series has as its target HER4(ErbB4) (Homo sapiens, UniProt Q15303). The experiment in a line: In vitro enzyme activity, HER4 (radiometric, Eurofins). Type of series: biochemical. The settings on record: conclusion. The method, then: The purpose of this assay is to detect the in vitro inhibitory activity of compounds on HER1(ErbB1), HER2(ErbB2), and HER4(ErbB4). The enzymes used in this assay are human ErbB 1, ErbB2 and ErbB4. Eurofins Pharma Discovery Service provided the method for activity detection. Steps and method of the assay (96-well plate): A buffer solution of the assay compounds in a dilution of 5-fold (5 μL), polypeptide substrate poly(Glu, Tyr) (4:1) (2.5 μL), ErbB (4-20 ng, 2.5 μL), MnCl2 (50 mM, 1.25 μL), dH2O (3.75 μL), and [γ-^33P]ATP (10 μL) were added, and incubated at 30° C. for 10 minutes. The reaction was terminated by adding 3% phosphoric acid. 10 μL of the sample was taken and transferred to Filtermate A. The filter disc was washed 3 times with 75 mM phosphoric acid and once with methanol. The filter disc was transferred to a sealed plastic bag and the scintillation mixture (4 mL) was added. The intensity of the emitted photon was detected by a scintillation luminescence counter. The CPM (times/min) of the enzyme sample was compared with the CPM of the internal control sample. The level of photon intensity reflected the degree of the tyrosine kinase activity.

A further series has as its target T2, CYP2D6 (Homo sapiens, UniProt P10635).
T2 construct: in the assay of CYP enzyme activity in human liver microsome; from tissue; host or cells: human liver microsome
Put plainly: Inhibition of CYP enzyme activity in human liver microsome, CYP2D6. Type of series: in vitro ADME. The settings on record: versus Poziotinib.
Text: as §1

In series [1] the test system is subcutaneous xenograft tumor of human esophageal carcinoma OE21 cells. The experiment in a line: In vivo pharmacodynamics, OE21 subcutaneous xenograft (Assay Example 5). Details: species or system mouse. The procedure:
Purpose of the assay: in vivo efficacy of the assay compound on subcutaneous xenograft tumor of human esophageal carcinoma OE21 cells in a BALB/c nude mouse model was evaluated.
Animals of the assay: female BALB/c nude mice, 6-8 weeks old, weighted 17-23 grams; supplier: shanghai sippr bk laboratory animals Ltd.
Human esophageal carcinoma OE21 cells were cultured in monolayer in vitro. The culture conditions were RPMI-1640 medium plus 10% fetal bovine serum, 100 U/mL penicillin, 100 U/mL streptomycin and 2 mM glutamine, 37° C., 5% CO2. The passaging was performed by conventional digestion with trypsin-EDTA twice a week. When the cell saturation was 80%-90%, the cells were collected, counted and inoculated.
0.1 ml […] OE21 cells (PBS) were inoculated subcutaneously on the right back of each mouse. When the average tumor volume reached 112 mm^3, administration to each group was started.
The assay compound was formulated into a 0.15 mg/mL to 0.3 mg/mL clear or suspension solution in the solvents of 10% NMP+10% ethylene glycol stearate+80% water.
The assay index was to investigate whether tumor growth is inhibited, delayed or cured. Tumor diameter was measured twice a week with vernier caliper. The calculation formula of tumor volume was: V=0.5a×b^2, wherein a and b represent the long and short diameters of tumor, respectively.
The antitumor efficacy of the compounds was evaluated by TGI (%) or relative tumor proliferation rate T/C (%). TGI (%) reflects the tumor growth inhibition rate. TGI (%) was calculated as follows: TGI (%)=[(1−average tumor volume at the end of administration for a certain treatment group−average tumor volume at the beginning of administration for this treatment group))/(average tumor volume at the end of treatment for a vehicle control group−average tumor volume at the beginning of administration for this vehicle control group)]×100%.
Relative tumor proliferation rate T/C (%): the calculation formula was as follows: T/C (%)=average tumor volume at the end of administration for a certain treatment group/average tumor volume at the end of treatment for the vehicle control group×100%.
Statistical analysis included the mean and standard error of mean (SEM) of tumor volume at each time point in each group. One-way ANOVA was used for comparison among three or more groups. […] SPSS 17.0 was used for all data analysis. p<0.05 was considered a significant difference.

Sequence of HER4(ErbB4) (Q15303 26-1308): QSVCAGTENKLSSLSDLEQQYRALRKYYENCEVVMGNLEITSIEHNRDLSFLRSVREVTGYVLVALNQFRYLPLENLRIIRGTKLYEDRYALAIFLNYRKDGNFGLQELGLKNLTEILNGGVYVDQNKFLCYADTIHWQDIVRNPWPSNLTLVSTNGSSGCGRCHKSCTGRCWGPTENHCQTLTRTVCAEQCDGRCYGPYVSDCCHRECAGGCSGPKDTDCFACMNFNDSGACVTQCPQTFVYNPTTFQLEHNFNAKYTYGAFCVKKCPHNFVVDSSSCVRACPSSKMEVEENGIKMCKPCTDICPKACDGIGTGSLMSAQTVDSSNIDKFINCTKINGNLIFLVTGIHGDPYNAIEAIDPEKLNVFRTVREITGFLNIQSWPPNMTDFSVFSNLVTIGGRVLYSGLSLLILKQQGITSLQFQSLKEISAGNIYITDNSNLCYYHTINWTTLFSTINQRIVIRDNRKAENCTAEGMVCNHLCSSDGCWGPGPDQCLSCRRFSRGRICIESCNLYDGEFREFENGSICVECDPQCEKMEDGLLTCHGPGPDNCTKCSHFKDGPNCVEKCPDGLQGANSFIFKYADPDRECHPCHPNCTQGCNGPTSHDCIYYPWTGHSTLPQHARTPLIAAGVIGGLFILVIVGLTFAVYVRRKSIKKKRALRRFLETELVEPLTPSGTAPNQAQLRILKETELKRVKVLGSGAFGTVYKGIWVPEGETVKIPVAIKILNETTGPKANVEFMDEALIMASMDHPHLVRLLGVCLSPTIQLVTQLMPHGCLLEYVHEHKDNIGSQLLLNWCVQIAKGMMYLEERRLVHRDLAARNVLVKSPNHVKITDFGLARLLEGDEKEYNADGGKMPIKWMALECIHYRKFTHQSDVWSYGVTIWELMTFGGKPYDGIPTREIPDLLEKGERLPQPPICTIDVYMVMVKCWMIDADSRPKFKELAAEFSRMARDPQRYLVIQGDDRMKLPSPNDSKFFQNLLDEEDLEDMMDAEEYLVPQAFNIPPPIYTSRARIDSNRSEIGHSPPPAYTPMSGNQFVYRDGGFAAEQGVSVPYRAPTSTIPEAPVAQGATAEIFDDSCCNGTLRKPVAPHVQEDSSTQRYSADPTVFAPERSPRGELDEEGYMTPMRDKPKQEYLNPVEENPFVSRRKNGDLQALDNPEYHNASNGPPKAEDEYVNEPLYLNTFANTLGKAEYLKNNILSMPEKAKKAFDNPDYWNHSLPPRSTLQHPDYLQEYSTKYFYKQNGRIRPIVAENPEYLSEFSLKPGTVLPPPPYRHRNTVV
T2 sequence (P10635 whole entry): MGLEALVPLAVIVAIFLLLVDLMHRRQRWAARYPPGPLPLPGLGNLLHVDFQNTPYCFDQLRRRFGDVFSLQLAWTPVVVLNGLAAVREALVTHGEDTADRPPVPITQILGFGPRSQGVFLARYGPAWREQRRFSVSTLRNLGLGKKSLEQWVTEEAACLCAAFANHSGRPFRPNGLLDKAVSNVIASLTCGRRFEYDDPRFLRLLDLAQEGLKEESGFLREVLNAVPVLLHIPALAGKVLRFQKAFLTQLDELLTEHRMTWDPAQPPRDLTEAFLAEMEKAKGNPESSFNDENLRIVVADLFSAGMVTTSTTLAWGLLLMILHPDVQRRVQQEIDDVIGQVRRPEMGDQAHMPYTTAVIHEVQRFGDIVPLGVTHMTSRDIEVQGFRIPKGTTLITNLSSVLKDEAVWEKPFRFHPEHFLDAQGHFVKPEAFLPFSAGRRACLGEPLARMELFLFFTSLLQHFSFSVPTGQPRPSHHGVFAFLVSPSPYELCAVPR

For the compound `C=CC(=O)N1[C@@H]2CC[C@H]1C[C@H](Nc1cc3c(Nc4ccc(Cl)c(Cl)c4F)ncnc3cc1OC)C2` [Compound of formula (I)], at CYP1A2, the “inhibitory activity on CYP1A2 (in words)” value is “no inhibitory activity”. Also, in the series “Pharmacokinetics in mice”, the “half-life compared with reference (in words)” value was “longer half-life than that of the reference compound”; the “oral plasma exposure compared with Poziotinib and control compound 2 (in words)” value is listed as “significantly better oral plasma exposure”. The “inhibitory activity on HER4 (in words)” value against HER4(ErbB4) was “significant inhibitory activity”. Besides, at CYP2D6, the “activity on CYP2D6, times better than the reference compound” value was determined as 6 times. The “body weight and clinical signs (in words)” value in series [1] (2/1.5 mg/kg) is “varying degrees of body weight loss and dandruff”. In addition, in series [1] (2/1.5 mg/kg, compared with the vehicle control group), the “tumor inhibitory effect (in words)” value was “significant tumor inhibitory effect”. In series [1] (2/1.5 mg/kg, Day 21, Mean + SEM), the “Tumor volume (Day 21)” value is 55 ± 13 mm3. Besides, the “effect on the body weight of mice (in words)” value in series [1] (discussion, high-dose group) is reported as “little effect on the body weight of mice”. In series [1] (low dose of 0.5 mpk), the “efficacy at low dose (in words)” value was “comparable to that of the reference compound Poziotnib and the compound of formula (I) at a high dose of 1.5 mpk”. Also, in series [1] (mouse, in vivo), the “dark yellow urine, suggestion of toxicity (in words)” value is “without the toxicity suggestion of dark yellow urine”.

The values are drawn from patent US20220242851A1, “CRYSTAL FORM AND SALT OF QUINAZOLINE COMPOUND AND PREPARATION METHOD THEREOF” (SHENZHEN JINRUI FOUNDATION BIOTECH CO., LTD, priority 2019, published 2022).
